Reference: ChEMBL document CHEMBL1201862, “PubChem BioAssay data set” (2004)
Active and inactive are the calls of the source.

Assays:
[1] = target: T1, Heat shock 70 kDa protein 1A (Homo sapiens, UniProt P0DMV8); experiment: Hsp70 inhibitors, biochemical, TR-FRET (AID 786)
[2] = target: T1, Heat shock 70 kDa protein 1A; experiment: Hsp70 inhibitors, probe displacement, primary screen, biochemical, fluorescence polarization (AID 583)
Estrogen receptor = target: T2, Estrogen receptor (Homo sapiens, UniProt P03372);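 also: potency for inhibiting coactivator peptide recruitment to the receptor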
T2 sequence (P03372 whole entry): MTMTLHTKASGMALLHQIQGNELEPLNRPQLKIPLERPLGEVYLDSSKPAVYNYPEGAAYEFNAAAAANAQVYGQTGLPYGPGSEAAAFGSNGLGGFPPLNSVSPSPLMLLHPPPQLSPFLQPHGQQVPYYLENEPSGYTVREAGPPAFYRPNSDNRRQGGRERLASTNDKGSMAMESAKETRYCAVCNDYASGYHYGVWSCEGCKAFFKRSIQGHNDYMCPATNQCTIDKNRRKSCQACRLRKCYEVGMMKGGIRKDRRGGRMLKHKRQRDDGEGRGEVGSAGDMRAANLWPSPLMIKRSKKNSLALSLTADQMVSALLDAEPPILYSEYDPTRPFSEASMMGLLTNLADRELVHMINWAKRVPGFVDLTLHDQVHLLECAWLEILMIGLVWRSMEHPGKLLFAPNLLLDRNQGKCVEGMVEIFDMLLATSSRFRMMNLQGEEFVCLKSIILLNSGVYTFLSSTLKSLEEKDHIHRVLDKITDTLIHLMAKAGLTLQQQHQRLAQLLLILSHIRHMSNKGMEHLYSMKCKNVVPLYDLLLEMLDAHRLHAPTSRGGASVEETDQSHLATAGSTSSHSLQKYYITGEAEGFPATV

Estrogen receptor beta = Estrogen receptor beta (Homo sapiens, UniProt Q92731);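 also: recombinant ER-beta bound to coactivator SRC1 peptide in presence of estradiol agonist; inhibitors block coactivator peptide binding and lower the FRET signal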
Estrogen receptor beta, sequence (Q92731 whole entry): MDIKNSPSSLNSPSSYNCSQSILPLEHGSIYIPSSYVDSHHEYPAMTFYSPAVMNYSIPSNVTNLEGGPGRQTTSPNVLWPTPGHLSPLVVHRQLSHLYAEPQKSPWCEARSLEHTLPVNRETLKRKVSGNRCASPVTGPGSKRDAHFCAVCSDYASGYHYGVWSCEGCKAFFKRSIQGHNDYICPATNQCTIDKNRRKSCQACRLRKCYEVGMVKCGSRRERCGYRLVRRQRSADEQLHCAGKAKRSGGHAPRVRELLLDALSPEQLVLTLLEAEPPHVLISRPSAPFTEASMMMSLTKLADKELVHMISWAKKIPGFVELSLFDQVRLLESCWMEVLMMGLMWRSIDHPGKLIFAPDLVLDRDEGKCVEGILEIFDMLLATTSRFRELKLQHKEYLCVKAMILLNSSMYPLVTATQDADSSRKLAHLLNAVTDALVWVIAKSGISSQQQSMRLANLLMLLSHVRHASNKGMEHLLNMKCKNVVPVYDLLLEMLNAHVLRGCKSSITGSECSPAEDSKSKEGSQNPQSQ

HT-1080 = experiment: cytotoxicity in HT1080 fibrosarcoma cells, cell-based, fluorescence readout (AID 620); format: functional; details: Homo sapiens
[3] = inhibitors of PGC1a acetylation in cells, dose response, cell-based, cherry-picked samples (AID 720514); format: functional;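 also: potency may reflect raised or lowered acetylation signal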
Protein RecA = target: T3, Protein RecA (Mycobacterium tuberculosis, UniProt P9WHJ3); experiment: Fluorescence Cell-Free Homogeneous Dose Retest to Identify Inhibitors of RecA-Intein Splicing Activity. [Related pubchem assays (depositor defined):AID2097, AID2223, AID489010, AID492950]; format: functional
T3 sequence (P9WHJ3 whole entry): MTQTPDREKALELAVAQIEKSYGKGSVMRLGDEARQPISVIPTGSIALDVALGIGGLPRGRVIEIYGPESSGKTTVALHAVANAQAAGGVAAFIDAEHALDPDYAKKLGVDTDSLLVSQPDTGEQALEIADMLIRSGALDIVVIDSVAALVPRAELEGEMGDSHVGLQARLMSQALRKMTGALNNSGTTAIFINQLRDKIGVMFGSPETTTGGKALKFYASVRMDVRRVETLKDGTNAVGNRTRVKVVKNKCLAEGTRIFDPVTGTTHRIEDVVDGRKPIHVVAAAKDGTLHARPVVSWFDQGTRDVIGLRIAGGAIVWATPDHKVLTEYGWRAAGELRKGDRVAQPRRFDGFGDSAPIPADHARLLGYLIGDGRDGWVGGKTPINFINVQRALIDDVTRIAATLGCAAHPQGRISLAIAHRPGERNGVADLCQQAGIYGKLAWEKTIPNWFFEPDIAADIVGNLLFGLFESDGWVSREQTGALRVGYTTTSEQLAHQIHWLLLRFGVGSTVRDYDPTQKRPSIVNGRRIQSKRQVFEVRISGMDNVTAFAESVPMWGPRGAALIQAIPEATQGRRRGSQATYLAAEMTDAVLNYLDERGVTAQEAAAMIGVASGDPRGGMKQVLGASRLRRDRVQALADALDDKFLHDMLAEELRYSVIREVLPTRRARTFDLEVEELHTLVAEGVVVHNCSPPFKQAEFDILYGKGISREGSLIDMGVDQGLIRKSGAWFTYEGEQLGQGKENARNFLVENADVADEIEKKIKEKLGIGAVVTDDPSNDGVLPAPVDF

[4] = target: Luciferin 4-monooxygenase (Photinus pyralis, UniProt P08659); experiment: Counter Screen for Luciferase-based Assay Positives. [Related pubchem assays: 620, 618, 411 ]
Luciferin 4-monooxygenase, sequence (P08659 whole entry): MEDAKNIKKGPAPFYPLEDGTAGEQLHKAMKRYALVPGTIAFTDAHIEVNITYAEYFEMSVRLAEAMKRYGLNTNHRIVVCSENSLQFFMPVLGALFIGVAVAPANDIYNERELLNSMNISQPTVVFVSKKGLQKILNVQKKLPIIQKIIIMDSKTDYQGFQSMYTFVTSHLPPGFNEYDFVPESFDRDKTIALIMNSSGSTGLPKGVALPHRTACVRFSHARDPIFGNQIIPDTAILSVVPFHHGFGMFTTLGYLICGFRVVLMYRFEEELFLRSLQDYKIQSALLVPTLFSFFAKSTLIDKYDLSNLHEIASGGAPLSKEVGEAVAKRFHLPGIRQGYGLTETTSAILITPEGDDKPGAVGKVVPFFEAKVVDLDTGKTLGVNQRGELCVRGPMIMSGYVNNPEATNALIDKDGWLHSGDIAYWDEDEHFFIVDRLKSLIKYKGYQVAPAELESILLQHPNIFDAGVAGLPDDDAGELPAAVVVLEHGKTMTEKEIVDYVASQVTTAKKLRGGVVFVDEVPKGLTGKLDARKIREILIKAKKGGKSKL

[5] = Luminescence Cell-Based Dose Retest to Confirm Inhibitors of Cancer Stem Cells. [Related pubchem assays (depositor defined):AID2717, AID2721]; format: functional; details: Homo sapiens
[6] = target: T4, Replicative DNA helicase DnaB (Mycobacterium tuberculosis, UniProt P9WMR3); experiment: DnaB intein splicing inhibitors, dose response, biochemical, cell-free fluorescence (AID 449749); format: functional
T4 sequence (P9WMR3 whole entry): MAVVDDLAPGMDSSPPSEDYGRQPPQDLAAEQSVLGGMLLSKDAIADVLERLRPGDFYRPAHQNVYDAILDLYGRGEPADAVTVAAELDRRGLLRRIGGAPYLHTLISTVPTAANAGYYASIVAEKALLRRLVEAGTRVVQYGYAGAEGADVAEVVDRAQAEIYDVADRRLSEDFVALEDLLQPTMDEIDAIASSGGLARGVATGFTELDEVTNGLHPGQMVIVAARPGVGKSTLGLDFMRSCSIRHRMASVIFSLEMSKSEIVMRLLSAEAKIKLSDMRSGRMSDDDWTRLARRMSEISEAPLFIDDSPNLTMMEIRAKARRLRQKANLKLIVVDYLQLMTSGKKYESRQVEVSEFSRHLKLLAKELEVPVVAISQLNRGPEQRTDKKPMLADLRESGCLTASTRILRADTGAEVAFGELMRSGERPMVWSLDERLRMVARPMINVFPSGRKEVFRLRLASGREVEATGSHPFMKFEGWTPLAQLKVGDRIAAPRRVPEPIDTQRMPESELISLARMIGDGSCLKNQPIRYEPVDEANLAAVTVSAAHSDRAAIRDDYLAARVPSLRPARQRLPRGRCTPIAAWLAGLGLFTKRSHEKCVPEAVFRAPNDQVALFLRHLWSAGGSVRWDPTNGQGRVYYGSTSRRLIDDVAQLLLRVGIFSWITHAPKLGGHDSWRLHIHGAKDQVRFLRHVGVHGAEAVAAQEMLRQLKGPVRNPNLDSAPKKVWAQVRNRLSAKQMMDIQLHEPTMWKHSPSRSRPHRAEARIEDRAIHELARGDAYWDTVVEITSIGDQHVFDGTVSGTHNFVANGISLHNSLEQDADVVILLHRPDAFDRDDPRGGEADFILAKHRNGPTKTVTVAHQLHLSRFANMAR

Insulin-degrading enzyme = target: T5, Insulin-degrading enzyme (Homo sapiens, UniProt P14735); experiment: Dose Response: Fluorescence polarization-based cell-based high throughput dose response assay for inhibitors of insulin-degrading enzyme (IDE). [Related pubchem assays: 434962 (Primary screen (IDE inhibitors in singlicate)), 449730 (Counterscreen (Cytotoxicity in triplicate)), 435028 (Confirmation (IDE inhibitors in triplicate)), 434984 (Summary …; format: functional
T5 sequence (P14735 whole entry): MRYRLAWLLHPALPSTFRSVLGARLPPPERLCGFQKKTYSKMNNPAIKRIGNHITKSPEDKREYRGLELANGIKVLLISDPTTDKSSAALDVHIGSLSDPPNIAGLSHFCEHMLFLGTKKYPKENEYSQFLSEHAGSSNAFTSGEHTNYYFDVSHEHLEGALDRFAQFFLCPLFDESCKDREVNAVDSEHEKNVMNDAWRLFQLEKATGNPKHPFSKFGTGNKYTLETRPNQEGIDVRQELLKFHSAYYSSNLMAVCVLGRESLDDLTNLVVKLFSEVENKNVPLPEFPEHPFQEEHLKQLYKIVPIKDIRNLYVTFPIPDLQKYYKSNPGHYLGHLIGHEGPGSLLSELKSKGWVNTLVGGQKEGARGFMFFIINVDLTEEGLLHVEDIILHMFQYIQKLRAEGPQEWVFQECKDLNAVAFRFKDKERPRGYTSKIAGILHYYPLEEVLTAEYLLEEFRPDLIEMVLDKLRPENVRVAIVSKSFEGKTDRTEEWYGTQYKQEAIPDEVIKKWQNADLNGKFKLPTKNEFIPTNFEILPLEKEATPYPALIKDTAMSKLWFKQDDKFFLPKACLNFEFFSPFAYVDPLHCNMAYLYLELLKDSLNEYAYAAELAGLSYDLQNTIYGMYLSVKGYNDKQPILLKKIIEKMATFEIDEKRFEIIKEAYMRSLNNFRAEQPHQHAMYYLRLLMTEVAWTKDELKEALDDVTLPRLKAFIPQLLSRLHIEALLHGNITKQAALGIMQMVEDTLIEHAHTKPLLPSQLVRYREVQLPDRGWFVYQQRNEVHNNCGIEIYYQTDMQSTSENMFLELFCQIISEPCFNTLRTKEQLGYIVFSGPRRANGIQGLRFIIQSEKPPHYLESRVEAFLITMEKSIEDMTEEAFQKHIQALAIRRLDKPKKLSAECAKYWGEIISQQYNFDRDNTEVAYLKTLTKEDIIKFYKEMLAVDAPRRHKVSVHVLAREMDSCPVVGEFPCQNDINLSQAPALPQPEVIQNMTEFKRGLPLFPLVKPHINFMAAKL

[7] = Counterscreen for IDE inhibitors: Luminescence-based cell-based high throughput dose response assay to identify compounds that are cytotoxic to HEK cells. [Related pubchem assays: 434962 (Primary screen (IDE inhibitors in singlicate)), 449730 (Counterscreen (Cytotoxicity in triplicate)), 435028 (Confirmation (IDE inhibitors in triplicate)) …; format: functional; details: HEK293
Bcl-2-like protein 10 = Bcl-2-like protein 10 (Homo sapiens, UniProt Q9HD36); experiment: Biochemical TR3 FP assay of Bcl-B inhibitor potency, EC50 (AID 1243); format: functional
Bcl-2-like protein 10, sequence (Q9HD36 whole entry): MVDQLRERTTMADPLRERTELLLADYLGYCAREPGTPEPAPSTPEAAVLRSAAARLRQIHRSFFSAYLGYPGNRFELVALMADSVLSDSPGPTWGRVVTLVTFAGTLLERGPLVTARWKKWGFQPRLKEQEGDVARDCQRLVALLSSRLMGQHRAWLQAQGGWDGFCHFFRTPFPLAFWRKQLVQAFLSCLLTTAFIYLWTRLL

[8] = inhibitors of intracellular T. cruzi replication, confirmation, NIH3T3 host cells, beta-gal luminescence (AID 2044); format: functional, cell-based;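 also: intracellular parasites grown in NIH/3T3 mouse fibroblasts as host cells; luminescent beta-galactosidase reporter signal from transgenic T. cruzi replicating inside host cells; inhibitors lower the luminescence signal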
Prothrombin = Prothrombin (Bos taurus, UniProt P00735); experiment: thrombin inhibition, dose response, biochemical, fluorescence polarization, uHTS hits (AID 602369); format: functional
[9] = target: Delta-type opioid receptor (Homo sapiens, UniProt P41143); experiment: Counterscreen for agonists of heterodimerization of the mu 1 (OPRM1) and delta 1 (OPRD1) opioid receptors: Luminescence-based cell-based high throughput dose response assay to identify agonists of OPRD1 homodimerization. [Related pubchem assays (depositor defined):AID504326, AID504355, AID504692, AID504904, AID504905]; format: functional
Delta-type opioid receptor, sequence (P41143 whole entry): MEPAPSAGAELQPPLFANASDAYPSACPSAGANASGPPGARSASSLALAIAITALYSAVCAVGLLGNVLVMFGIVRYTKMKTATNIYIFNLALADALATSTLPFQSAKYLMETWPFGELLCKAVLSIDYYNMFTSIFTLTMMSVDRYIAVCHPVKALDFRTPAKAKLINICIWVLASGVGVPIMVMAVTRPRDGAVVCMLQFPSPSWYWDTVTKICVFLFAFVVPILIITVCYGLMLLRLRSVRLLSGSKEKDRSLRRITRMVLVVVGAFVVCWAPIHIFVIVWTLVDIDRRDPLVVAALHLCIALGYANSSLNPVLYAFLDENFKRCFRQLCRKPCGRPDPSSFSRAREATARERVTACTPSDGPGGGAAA

[10] = target: Protein-tyrosine kinase 2-beta (Homo sapiens, UniProt Q14289);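 also: potency of inhibitors of PYK2 kinase phosphorylation of poly-GT substrate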
[11] = Luminescence Cell-Based Dose Response HTS to Identify Inhibitors of 5'UTR Stem-Loop Driven Prion Protein mRNA Translation in H4 Neuroglioblastoma Cells. [Related pubchem assays: 1827 (Project Summary), 1813 (Primary HTS)]; format: functional
[12] = target: 5-hydroxytryptamine receptor 5A (Homo sapiens, UniProt P47898); experiment: Counterscreen for agonists of OPRM1-OPRD1 heterodimerization: luminescence-based cell-based high throughput dose response assay to identify agonists of 5-hydroxytryptamine (serotonin) 5A receptor (HTR5A). [Related pubchem assays (depositor defined):AID504326, AID504355, AID504692, AID504904, AID504905]; format: functional
5-hydroxytryptamine receptor 5A, sequence (P47898 whole entry): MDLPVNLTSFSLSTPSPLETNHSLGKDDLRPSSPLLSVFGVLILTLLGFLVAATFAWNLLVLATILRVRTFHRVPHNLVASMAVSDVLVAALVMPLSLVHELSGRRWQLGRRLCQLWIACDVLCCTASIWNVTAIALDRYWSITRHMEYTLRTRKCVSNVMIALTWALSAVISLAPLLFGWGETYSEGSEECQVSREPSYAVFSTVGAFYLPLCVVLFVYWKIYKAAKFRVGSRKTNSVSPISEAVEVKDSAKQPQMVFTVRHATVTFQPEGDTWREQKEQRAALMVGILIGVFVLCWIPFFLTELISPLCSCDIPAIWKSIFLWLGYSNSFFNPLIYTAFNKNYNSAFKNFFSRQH

[13] = target: 26S proteasome non-ATPase regulatory subunit 14 (Homo sapiens, UniProt O00487); experiment: inhibition of proteasome subunit RPN11 – biochemical, fluorescence polarization, uHTS hits, confirmation (AID 602368); format: functional
26S proteasome non-ATPase regulatory subunit 14, sequence (O00487 whole entry): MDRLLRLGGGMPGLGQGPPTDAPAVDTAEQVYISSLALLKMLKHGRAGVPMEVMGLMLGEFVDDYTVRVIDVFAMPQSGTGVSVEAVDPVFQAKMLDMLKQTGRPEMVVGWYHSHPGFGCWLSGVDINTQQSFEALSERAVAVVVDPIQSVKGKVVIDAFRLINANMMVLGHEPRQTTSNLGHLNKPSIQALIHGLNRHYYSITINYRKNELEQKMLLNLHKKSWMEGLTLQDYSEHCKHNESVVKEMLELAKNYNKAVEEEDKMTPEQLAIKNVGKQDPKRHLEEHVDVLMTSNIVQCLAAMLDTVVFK

[14] = target: Peroxisome proliferator-activated receptor gamma/Nuclear receptor coactivator 3 (Homo sapiens, UniProt P37231); format: functional;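 also: agonist potency for raising coactivator recruitment to the receptor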
[15] = cytotoxicity toward NIH3T3 fibroblasts, dose response, counter-screen, cell-based, ATP luminescence, mouse fibroblasts (AID 2010); format: functional;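 also: cells exposed to compound for about 90 hours before reading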
[16] = target: Peroxisome proliferator-activated receptor gamma/Nuclear receptor coactivator 2 (Homo sapiens, UniProt P37231); format: functional;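 also: agonist potency for raising coactivator recruitment to the receptor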
Mu-type opioid receptor = Mu-type opioid receptor (Homo sapiens, UniProt P35372); experiment: Counterscreen for agonists of heterodimerization of the mu 1 (OPRM1) and delta 1 (OPRD1) opioid receptors: Luminescence-based cell-based high throughput dose response assay to identify agonists of OPRM1 homodimerization.; format: functional;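 also: U2OS cells expressing OPRM1 and beta-arrestin as split beta-galactosidase partners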
Mu-type opioid receptor, sequence (P35372 whole entry): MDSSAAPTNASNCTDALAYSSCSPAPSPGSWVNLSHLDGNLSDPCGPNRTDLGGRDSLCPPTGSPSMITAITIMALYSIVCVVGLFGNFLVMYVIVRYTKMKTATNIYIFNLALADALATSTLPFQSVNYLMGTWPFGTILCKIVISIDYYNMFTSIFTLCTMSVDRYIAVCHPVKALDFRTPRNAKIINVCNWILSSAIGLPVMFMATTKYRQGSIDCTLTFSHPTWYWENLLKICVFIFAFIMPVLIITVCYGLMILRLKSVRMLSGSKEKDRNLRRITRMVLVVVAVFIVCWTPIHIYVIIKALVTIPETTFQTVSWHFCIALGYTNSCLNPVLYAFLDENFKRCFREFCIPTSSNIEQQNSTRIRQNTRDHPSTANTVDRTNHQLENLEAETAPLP

[17] = target: 72 kDa type IV collagenase (Homo sapiens, UniProt P08253); experiment: Dose Response validation of uHTS RPN11 inhibitor hits using a MMP-2 Fluorescence assay.; format: functional
72 kDa type IV collagenase, sequence (P08253 whole entry): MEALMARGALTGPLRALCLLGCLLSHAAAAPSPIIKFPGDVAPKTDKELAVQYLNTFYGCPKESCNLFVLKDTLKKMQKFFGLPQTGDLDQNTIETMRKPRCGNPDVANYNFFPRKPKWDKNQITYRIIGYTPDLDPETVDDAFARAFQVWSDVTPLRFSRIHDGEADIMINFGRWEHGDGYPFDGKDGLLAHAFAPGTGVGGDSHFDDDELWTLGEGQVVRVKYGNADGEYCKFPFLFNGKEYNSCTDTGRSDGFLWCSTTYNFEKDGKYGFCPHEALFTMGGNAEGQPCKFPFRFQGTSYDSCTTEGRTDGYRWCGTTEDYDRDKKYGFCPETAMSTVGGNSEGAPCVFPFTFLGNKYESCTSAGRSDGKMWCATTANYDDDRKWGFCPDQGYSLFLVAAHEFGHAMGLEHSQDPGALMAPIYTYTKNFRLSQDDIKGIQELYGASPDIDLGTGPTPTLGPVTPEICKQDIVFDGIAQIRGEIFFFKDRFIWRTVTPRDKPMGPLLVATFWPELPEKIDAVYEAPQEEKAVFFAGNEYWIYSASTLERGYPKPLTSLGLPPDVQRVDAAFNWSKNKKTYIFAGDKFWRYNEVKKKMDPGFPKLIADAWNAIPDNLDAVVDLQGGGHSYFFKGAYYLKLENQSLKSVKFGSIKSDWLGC

[18] = target: Peroxisome proliferator-activated receptor gamma/Nuclear receptor coactivator 1 (Homo sapiens, UniProt P37231); format: functional;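 also: agonist potency as compounds enhance coactivator SRC-1 recruitment to PPARgamma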
[19] = HIV-1 Env-mediated cell fusion inhibitors, dose response, CCR5-tropic Env (AID 2279); format: functional
[20] = target: Heat shock protein HSP 90-alpha (Homo sapiens, UniProt P07900); experiment: Luminescence-based dose response biochemical high throughput screening assay for inhibitors of the Heat Shock Protein 90 (HSP90). [Related pubchem assays: 1831 (Summary AID.), 1846 (Confirmation screen.), 1789 (Primary screen.)]

T1 sequence (P0DMV8 whole entry): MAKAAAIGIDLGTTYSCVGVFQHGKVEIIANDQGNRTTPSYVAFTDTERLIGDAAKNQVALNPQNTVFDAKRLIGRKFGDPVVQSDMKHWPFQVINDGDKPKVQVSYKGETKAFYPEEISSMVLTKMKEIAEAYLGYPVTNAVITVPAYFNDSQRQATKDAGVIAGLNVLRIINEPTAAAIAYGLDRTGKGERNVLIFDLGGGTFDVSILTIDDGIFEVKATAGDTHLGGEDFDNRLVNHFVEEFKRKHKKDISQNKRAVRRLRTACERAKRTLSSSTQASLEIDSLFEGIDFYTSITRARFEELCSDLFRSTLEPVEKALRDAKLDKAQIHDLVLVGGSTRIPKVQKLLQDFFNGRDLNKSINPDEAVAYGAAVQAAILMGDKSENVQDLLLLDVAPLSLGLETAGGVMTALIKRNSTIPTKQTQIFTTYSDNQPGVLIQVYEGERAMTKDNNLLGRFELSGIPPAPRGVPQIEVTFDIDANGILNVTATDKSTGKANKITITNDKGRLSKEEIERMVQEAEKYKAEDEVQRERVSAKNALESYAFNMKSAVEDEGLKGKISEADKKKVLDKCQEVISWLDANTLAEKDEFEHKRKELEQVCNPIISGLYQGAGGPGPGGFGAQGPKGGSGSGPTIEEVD

NC(=O)COc1ccc(C2c3c(oc4ccccc4c3=O)C(=O)N2CC2CCCO2)cc1 (stereo not drawn)
IC50 [1]: 16 µM (active)
IC50 [2]: 55.1 µM (active)
IC50 (Estrogen receptor): > 50 µM (not active)
IC50 (Estrogen receptor beta): > 50 µM (not active)

CCCCOc1ccc(C(=O)C(CN2CCOCC2)c2ccccc2)cc1 (stereo not drawn)
EC50 (HT-1080): 30 µM (active)
AC50 [3]: 4.4 µM (active)
EC50 (Protein RecA): 26.7 µM (inconclusive)
EC50 [4]: 3.7 µM (active)
AC50 [5]: 5.12 µM (active)
AC50 [6]: 12.6 µM (active)

O=C(Nc1cccc(C(F)(F)F)c1)c1csc(-c2ccncc2)n1
IC50 (Insulin-degrading enzyme): 5.34 µM (active)
IC50 [7]: 21.2 µM (not active)

O=S(=O)(O)c1cccc2cccc(Nc3ccccc3)c12
EC50 (Bcl-2-like protein 10): 2.95 µM (active)

O=C(COc1ccc(/C=N/NC(=O)c2cc3ccccc3o2)cc1Br)Nc1ccccc1
EC50 [8]: 1.97 µM (active)
IC50 (Prothrombin): 76.3 µM (active)
EC50 [9]: > 92.5 µM (inactive)
IC50 [10]: > 2.57 µM (not active)
EC50 [11]: 9.11 µM (inconclusive)
EC50 [12]: > 92.5 µM (inactive)
IC50 [13]: 12.4 µM (active)
EC50 [14]: > 79.4 µM (not active)
EC50 [15]: > 60 µM (not active)
EC50 [16]: > 79.4 µM (not active)
EC50 (Mu-type opioid receptor): > 92.5 µM (inactive)
IC50 [17]: > 100 µM (inactive)
EC50 [18]: > 79.4 µM (not active)

COc1cc(/C=N/Nc2ccc(Cl)c(C(=O)O)c2)ccc1OC(=O)c1ccc(F)cc1
IC50 [19]: 4.76 µM (active)
IC50 [20]: 0.874 µM (active)
